Like-named read-outs stand apart in the source and are kept apart here.
Target: T1, human B1 receptor (Homo sapiens, UniProt P46663)
T1 construct: host or cells: CHO-K1
T1 sequence (P46663 1-353): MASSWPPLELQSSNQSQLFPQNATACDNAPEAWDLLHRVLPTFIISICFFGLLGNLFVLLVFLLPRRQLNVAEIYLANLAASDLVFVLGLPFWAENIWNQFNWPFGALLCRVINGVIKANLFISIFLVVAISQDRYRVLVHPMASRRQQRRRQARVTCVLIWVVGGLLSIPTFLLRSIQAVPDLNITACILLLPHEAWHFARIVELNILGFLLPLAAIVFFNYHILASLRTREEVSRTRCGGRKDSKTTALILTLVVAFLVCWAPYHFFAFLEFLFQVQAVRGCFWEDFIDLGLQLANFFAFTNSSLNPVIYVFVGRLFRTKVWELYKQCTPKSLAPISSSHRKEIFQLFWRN
Assay: Calcium flux assay (FLIPR) with recombinant CHO-K1 cells expressing human B1 receptor
Format: cell-based
Description: The potency to inhibit the Bradykinin B1 receptors was determined for the example compounds of this invention in a cell-based fluorescent calcium-mobilisation assay. The assay measures the ability of example compounds to inhibit Bradykinin B1 receptor agonist-induced increase of intracellular free Ca^2+ in the cell line expressing B1 receptor. Specifically, calcium indicator-loaded cells are pre-incubated in the absence or presence of different concentrations of example compounds followed by the stimulation with a selective B1 receptor agonist peptide. The change of the intracellular Ca^2+ concentration is monitored with a fluorescent plate reader FLIPR (Molecular Devices).
Calcium Flux Assays (FLIPR) with Cells Expressing Bradykinin B1 Receptor Calcium Flux Assay (FLIPR) with Recombinant Cells for Bradykinin B1 Receptor Antagonist, Either in the Presence (hB1 IC50) or Absence (hB1 free IC50) of 0.1% Bovine Serum Albumin (BSA) in Assay Buffer
CHO-K1 cell line expressing human B1 receptor was purchased from Euroscreen (Gosselies, Belgium, with reference name hB1-D1). The cells were grown in Nutrient Mixture Ham's F12 (Sigma) containing 10% Foetal bovine serum (Sigma) and 400 μg/mL G418 (Sigma), 5 μg/mL puromycin (Sigma).
For the calcium flux assay, 80% confluent cells were detached from the culture vessels with Versene (Gibco), and seeded into 384-well plates (Cell binding Surface; Corning, N.Y.; #3683) at a density of 15,000 cells per well. Cells were seeded in a volume of 50 μL in medium without antibiotics and incubated overnight in a humidified atmosphere with 5% CO2 at 37° C. […] The calcium indicator loaded cells were incubated at 37° C. for 2 hrs. Extracellular dye was then removed and each well was filled with 45 μL of assay buffer. Cell plates were kept in dark until used. Example compounds were assayed at 8 concentrations in triplicate. Serial 10-fold dilutions in 100% DMSO were made at a 100-times higher concentration than the final concentration, and then diluted 1:10 in assay buffer. 5 μL of each diluted compound was added to the well of cell plates (yielding final concentration with 1% DMSO), and incubated for 30 min at 28° C. before the addition of B1 receptor agonist on the FLIPR instrument.
Agonist plates contained the agonist Lys-(Des-Arg)-Bradykinin (Bachem, Brackley) at 3.5×EC90 in assay buffer with 1% DMSO. The addition of agonist 20 μl per well to the assay plate was carried out on the FLIPR instrument while continuously monitoring Ca^2+-dependent fluorescence at 538 nm. A peptide antagonist Lys-(Des-Arg-Leu)-Bradykinin (Bachem, Brackley) at 20 μM was used to determine the full inhibition as control.
Peak fluorescence was used to determine the response to agonist obtained at each concentration of example compound by the following equation:
% Response=100*(RFU(example compound)−RFU(control)/(RFU(DMSO)−RFU(control)
Control=full inhibition by the peptide antagonist Lys-(Des-Arg-Leu)-Bradykinin at 20 μM
The response values were plotted against the logarithm of the compound concentrations. The compounds were tested in triplicates per plate and mean values were plotted in Excel XLfit to determine IC50 values, percentage of maximal inhibition and the Hill slopes.

[1] = presence of 0.1% BSA in assay buffer, read-out: hB1 IC50
[2] = absence of 0.1% BSA in assay buffer, read-out: hB1 free IC50

SMILES: COc1ccc(-c2cc(C)c(NC(=O)C3CC3c3ccc(Cl)cc3)cc2-c2nnn[nH]2)cc1OC (racemic) [Example 66, 2-(4-Chlorophenyl)-N-[3′,4′-dimethoxy-5-methyl-2-(1H-tetrazol-5-yl)biphenyl-4-yl]cyclopro-panecarboxamide]
- IC50 [1]: 283 nM

SMILES: COc1ccc(-c2cc(C)c(NC(=O)C3CC3C3CCCCC3)cc2-c2nnn[nH]2)cc1OC (racemic) [Example 67, 2-Cyclohexyl-N-[3′,4′ dimethoxy-5-methyl-2-(1H-tetrazol-5-yl)biphenyl-4-yl]cyclopro-panecarboxamide]
- IC50 [1]: 430 nM

SMILES: COc1cncc(-c2cc(C)c(NC(=O)C3CC3c3cccc(C)c3)cc2-c2nnn[nH]2)c1 (racemic) [Example 68, N-[4-(5-Methoxypyridin-3-yl)-2-methyl-5-(1H-tetrazol-5-yl)phenyl]-2-(3-methylphenyl)cyclo-propanecarboxamide]
- IC50 [1]: 336 nM

SMILES: COc1cncc(-c2cc(C)c(NC(=O)C3CC3C3CCCCC3)cc2-c2nnn[nH]2)c1 (racemic) [Example 69, 2-Cyclohexyl-N-[4-(5-methoxypyridin-3-yl)-2-methyl-5-(1H-tetrazol-5-yl)phenyl]cyclopropane-carboxamide]
- IC50 [1]: 447 nM

SMILES: Cc1cccc(C2CC2C(=O)Nc2cc(-c3nnn[nH]3)c(-c3ccc(C(F)(F)F)nc3)cc2C)c1 (racemic) [Example 70, 2-(3-Methylphenyl)-N-{2-methyl-5-(1H-tetrazol-5-yl)-4-[6-(trifluoromethyl)pyridin-3-yl]phenyl}cyclopro-panecarboxamide]
- IC50 [2]: 157 nM
- IC50 [1]: 86 nM

SMILES: Cc1cc(-c2ccc(C(F)(F)F)nc2)c(-c2nnn[nH]2)cc1NC(=O)C1CC1C1CCCCC1 (racemic) [Example 71, 2-Cyclohexyl-N-{2-methyl-5-(1H-tetrazol-5-yl)-4-[6-(trifluoromethyl)pyridin-3-yl]phenyl}cyclopro-panecarboxamide]
- IC50 [2]: 308 nM
- IC50 [1]: 263 nM

SMILES: CCOc1ccc(-c2cc(C)c(NC(=O)C3CC3c3cccc(C)c3)cc2-c2nnn[nH]2)cc1OC (racemic) [Example 72, N-[4′-Ethoxy-3′-methoxy-5-methyl-2-(1H-tetrazol-5-yl)biphenyl-4-yl]-2-(3-methylphenyl)cyclopro-panecarboxamide]
- IC50 [1]: 38 nM

SMILES: CCOc1ccc(-c2cc(C)c(NC(=O)C3CC3C3CCCCC3)cc2-c2nnn[nH]2)cc1OC (racemic) [Example 73, 2-Cyclohexyl-N-[4′-ethoxy-3′-methoxy-5-methyl-2-(1H-tetrazol-5-yl)biphenyl-4-yl]cyclopro-panecarboxamide]
- IC50 [1]: 226 nM

SMILES: COc1ccc(-c2cc(C)c(NC(=O)C3CC3C3CCCCC3)cc2-c2nnn[nH]2)cc1C (racemic) [Example 74, 2-Cyclohexyl-N-[4′-methoxy-3′,5-dimethyl-2-(1H-tetrazol-5-yl)biphenyl-4-yl]cyclopro-panecarboxamide]
- IC50 [1]: 299 nM

SMILES: Cc1cccc(C2CC2C(=O)Nc2ccc(-c3cc4ccccc4s3)c(-c3nnn[nH]3)c2)c1 (racemic) [Example 76, N-[4-(1-Benzothiophen-2-yl)-3-(1H-tetrazol-5-yl)phenyl]-2-(3-methylphenyl)cyclopro-panecarboxamide]
- IC50 [2]: 249 nM

SMILES: CCOc1ccc(-c2ccc(NC(=O)C3CC3c3cccc(C)c3)cc2-c2nnn[nH]2)cc1OC (racemic) [Example 77, N-[4′-ethoxy-3′-methoxy-2-(1H-tetrazol-5-yl)biphenyl-4-yl]-2-(3-methylphenyl)cyclopro-panecarboxamide]
- IC50 [1]: 12 nM

SMILES: O=C(Nc1ccc(-c2ccc(C(F)(F)F)nc2)c(-c2nnn[nH]2)c1)C1CC1c1ccc(Cl)cc1 (racemic) [Example 79, 2-(4-chlorophenyl)-N-{3-(1H-tetrazol-5-yl)-4-[6-(trifluoro-methyl)pyridin-3-yl]phenyl}cyclopropane-carboxamide]
- IC50 [2]: 71 nM
- IC50 [1]: 6460 nM

SMILES: Cn1cc(-c2ccc(NC(=O)C3CC3c3ccc(Cl)cc3)cc2-c2nnn[nH]2)cn1 (racemic) [Example 80, 2-(4-chlorophenyl)-N-[4-(1-methyl-1H-pyrazol-4-yl)-3-(1H-tetrazol-5-yl)phenyl]cyclopropane-carboxamide]
- IC50 [2]: 1310 nM
- IC50 [1]: 12400 nM

SMILES: CCOc1ccc(-c2ccc(NC(=O)C3CC3c3cnn(C)c3)cc2-c2nnn[nH]2)cn1 (racemic) [Example 81, N-[4-(6-ethoxypyridin-3-yl)-3-(1H-tetrazol-5-yl)phenyl]-2-(1-methyl-1H-pyrazol-4-yl)cyclopro-panecarboxamide]
- IC50 [2]: 2500 nM
- IC50 [1]: 4070 nM

SMILES: COCc1ccc(-c2ccc(NC(=O)C3CC3C3CCCCC3)cc2-c2nnn[nH]2)cc1 (racemic) [Example 82, 2-cyclohexyl-N-[4′-(methoxymethyl)-2-(1H-tetrazol-5-yl)biphenyl-4-yl]cyclopropanecarbox-amide]
- IC50 [1]: 2550 nM

SMILES: COc1ccc(-c2ccc(NC(=O)C3CC3C3CCCCC3)cc2-c2nnn[nH]2)cc1C (single isomer, unassigned) [Example 35, 2-Cyclohexyl-N-[4′-methoxy-3′-methyl-2-(1H-tetrazol-5-yl)biphenyl-4-yl]cyclopropanecarbox-amide]
- IC50 [1]: 378 nM

SMILES: CCOc1ccc(-c2cc(O)c(NC(=O)C3CC3c3ccc(Cl)cc3)cc2-c2nnn[nH]2)cn1 (single isomer, unassigned) [Example 49, 2-(4-chlorophenyl)-N-[4-(6-ethoxypyridin-3-yl)-2-hydroxy-5-(1H-tetrazol-5-yl)phenyl]cyclopropane-carboxamide]
- IC50 [1]: 1580 nM

SMILES: CCOc1ccc(-c2cc(O)c(NC(=O)C3CC3c3ccc(Cl)cc3)cc2-c2nnn[nH]2)cn1 (single isomer, unassigned) [Example 50, 2-(4-chlorophenyl)-N-[4-(6-ethoxypyridin-3-yl)-2-hydroxy-5-(1H-tetrazol-5-yl)phenyl]cyclopropane-carboxamide]
- IC50 [1]: 24 nM

SMILES: CC(C)(C)c1cn(-c2ccc(NC(=O)C3CC3c3ccc(Cl)cc3)cc2-c2nnn[nH]2)cn1 (single isomer, unassigned) [Example 84, N-[4-(4-tert-butyl-1H-imidazol-1-yl)-3-(1H-tetrazol-5-yl)phenyl]-2-(4-chlorophenyl)cyclopropanecarboxamide]
- IC50 [2]: 4 nM

SMILES: CC(C)(C)c1cn(-c2ccc(NC(=O)C3CC3c3ccc(Cl)cc3)cc2-c2nnn[nH]2)cn1 (single isomer, unassigned) [Example 85, N-[4-(4-tert-butyl-1H-imidazol-1-yl)-3-(1H-tetrazol-5-yl)phenyl]-2-(4-chlorophenyl)cyclopropanecarboxamide]
- IC50 [2]: 147 nM

SMILES: CC[C@@H]1CCN(c2ccc(NC(=O)C3CC3c3ccc(Cl)cc3)cc2-c2nnn[nH]2)C1=O (stereo partly drawn) [Example 75, 2-(4-Chlorophenyl)-N-{4-[(3R)-3-ethyl-2-oxopyrrolidin-1-yl]-3-(1H-tetrazol-5-yl)phenyl}cyclopropane-carboxamide]
- IC50 [2]: 458 nM

SMILES: O=C(Nc1cc(-c2nnn[nH]2)c(-c2ccc(C(F)(F)F)nc2)cc1O)C1CC1c1ccc(Cl)cc1 (stereo not shown) [Example 83, 2-(4-chlorophenyl)-N-[2-hydroxy-5-(1H-tetrazol-5-yl)-4-[6-(trifluoromethyl)-3-pyridyl]phenyl]cyclo-propanecarboxamide]
- IC50 [2]: 188 nM
- IC50 [1]: 484 nM
